Test results reported in patent US4224325A, “3-(1-Pyrazolyl)-pyridazine derivatives and hypotensive compositions thereof” (Richter Gedeon Vegyeszeti Gyar Rt., priority 1977, dated 1980).
Where two headings read alike, the source gives them in different places.

Tests used:
[1] = biological target: T1, prostaglandin dehydrogenase (PGDH) (Sus scrofa, UniProt A0ACM8QJV0); assay: Prostaglandin dehydrogenase (PGDH) inhibiting action, method of Marrazzi and Matschinsky, PGDH preparation from pig lung; type: biochemical
T1 construct: on a PGDH preparation from pig lung; from tissue; host or cells: pig lung
T1 sequence (A0ACM8QJV0 1-266): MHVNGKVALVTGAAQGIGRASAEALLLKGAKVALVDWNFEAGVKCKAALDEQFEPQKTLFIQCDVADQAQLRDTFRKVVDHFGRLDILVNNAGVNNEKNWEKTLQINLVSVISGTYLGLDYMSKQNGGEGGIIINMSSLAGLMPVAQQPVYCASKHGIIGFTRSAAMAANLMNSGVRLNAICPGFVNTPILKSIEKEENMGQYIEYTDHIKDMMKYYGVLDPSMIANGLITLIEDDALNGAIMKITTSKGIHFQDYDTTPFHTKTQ
Description: (§1) The I50%, i.e. the index of inhibition, is defined as the concentration of the substance inhibiting to 50% the function of the corresponding enzyme.

[2] = biological target: prostaglandin-A isomerase (PGAI); assay: Prostaglandin-A isomerase (PGAI) inhibiting action, method of Jones et al., PGAI preparation from blood plasma of pigs; type: biochemical; settings: concentration inhibiting enzyme function to 50%; PGAI from pig blood plasma; read-out: I50% inhibiting level in final concentration, PGAI
Description: as §1

[3] = tested on: cats; assay: Hypotensive action in narcotized cats (decrease in blood pressure); type: in vivo; settings: cats narcotized i.p. by 30 mg/kg Pentobarbital
[4] = in vivo; settings: mouse, po
[5] = tested on: mice; settings: against Hydralazine
[6] = tested on: prostaglandin dehydrogenase and prostaglandin-A isomerase; assay: Inhibition of enzymes regulating prostaglandin catabolism (prostaglandin dehydrogenase and prostaglandin-A isomerase), in words; type: biochemical
Description: The prostaglandin-A isomerase (PGAI) inhibiting action of the compounds according to the invention was measured by the method of Jones et al. (Biochim. Biophys. Acta 280, 558, 1972) on a PGAI preparation from the blood plasma of pigs, whereas the prostaglandin dehydrogenase (PGDH) inhibiting action was determined by the method of Marrazzi and Matschinsky (Prostaglandins 1, 373, 1972); on a PGDH preparation from pig lung.

[7] = Tachycardia (inability to cause, compared with Hydralazine); type: in vivo; settings: against Hydralazine
[8] = tested on: spontaneously hypertensive (Wistar-Okamoto) rats; assay: Hypotensive action in spontaneously hypertensive rats, systolic blood pressure in caudal artery by indirect method after oral treatment; type: in vivo; settings: dose equal to Hydralazine
Description: The hypotensive action of substance 44 was studied also in spontaneously hypertensive (Wistar-Okamoto(rats)Arzneim.- forsch. 6, 222, 1956): the systolic blood pressure was measured in the caudal artery by an indirect method, after oral treatment.

[9] = concentration inhibiting enzyme function to 50%, PGDH from pig lung, read-out: I50% inhibiting level in final concentration, PGDH

| SMILES | IC50 [2] [µM] | Decrease in blood pressure by 1 mg/kg [3] [Hgmm] | LD50 [4] [mg/kg] | also measured |
| --- | --- | --- | --- | --- |
| C[C@]12CC[C@@H]3c4ccc(O)cc4CC[C@H]3[C@@H]1CCC2=O [Estrone, reference compound] |  |  |  | IC50 [1]: 10 µM |
| Cc1cc(C)n(-c2ccc(NCc3ccccc3)nn2)n1 [Example 17, 3-Benzylamino-6-(3,5-dimethyl-1-pyrazolyl)-pyridazine] |  |  |  | IC50 [1, 9]: 200 µM |
| Cc1cc(C)n(-c2ccc(N(C)C)nn2)n1 [Example 19, 3-Dimethylamino-6-(3,5-dimethyl-1-pyrizolyl)-pyridazine] | 130 |  |  |  |
| c1ccc(CNc2ccc(-n3nc(-c4ccccc4)cc3-c3ccccc3)nn2)cc1 [Example 21, 3-Benzylamino-6-(3,5-diphenyl-1-pyrazolyl)-pyridazine] | 20 |  |  |  |
| Cc1cc(C)n(-c2ccc(NN)nn2)n1 [Example 25, 3-hydrazino-6-(3,5-dimethyl-1-pyrazolyl)-pyridazine] | 25 | -30 | 200 |  |
| NNc1ccc(-n2nc(C3CC3)cc2C2CC2)nn1 [Example 26, 3-Hydrazino-6-(3,5-dicyclopropyl-1-pyrazolyl)-pyridazine] |  | -40 | 100 |  |
| CCc1cc(CC)n(-c2ccc(NN)nn2)n1 [Example 29, 3-Hydrazino-6-(3,5-diethyl-1-pyrazolyl)-pridazine] |  | -40 | ~150 |  |
| Cc1nn(-c2ccc(NN)nn2)c(C)c1C [Example 31, 3-Hydrazino-6-(3,4,5-trimethyl-1-pyrazolyl)-pridazine] | 60 | -15 | 100 |  |
| Cc1nn(-c2ccc(NN)nn2)c(C)c1Cl [Example 34, 3-Hydrazino-6-(3,5-dimethyl-4-chloro-1-pyrazolyl)-pyridazine] |  | -20 | > 200 | IC50 [1, 9]: 110 µM |
| Cc1nn(-c2ccc(NN)nn2)c(C)c1Br [Example 35, 3-Hydrazini-6-(3,5-dimethyl-4-bromo-1-pyrazolyl)-pyridazine] | 80 |  |  |  |
| NNc1ccc(-n2nccc2N)nn1 [Example 40, 3-Hydrazino-6-(5-amino-1-pyrazolyl)-pyridazine] |  | -30 | 200 |  |
| Cc1nn(-c2ccc(NN)nn2)c(C)c1N [Example 44, 3-hydrazino-6-(3,5-dimethyl-4-amino-1-pyrazolyl)-pyridazine] | 70 | -40 | > 200 | Toxicity compared with Hydralazine [5]: extraordinarily favorable toxicity; Prostaglandin catabolism inhibiting effect [6]: prostaglandin catabolism inhibiting effect; Tachycardia [7]: inability to cause tachycardia; Duration of effect compared with Hydralazine at equal dose [8]: same duration of effect; Effectivity (systolic blood pressure) compared with Hydralazine at equal dose [8]: same effectivity |
| NNc1ccc(-n2cc(N)cn2)nn1 [Example 45, 3-Hydrazino-6-(4-amino-1-pyrazolyl)-pyridazine] |  | -30 | 200 |  |
| CCc1nn(-c2ccc(NN)nn2)c(CC)c1N [Example 46, 3-Hydrazino-6-(3,5-diethyl-4-amino-1-pyrazolyl)-pyridazine] |  | -50 | 200 |  |
| Cc1nn(-c2ccc(NNC(=O)OC(C)(C)C)nn2)c(C)c1N [Example 56, 3-(2-tert-butoxycarbonyl-1-hydrazino)-6-(3,5-dimethyl-4-amino-1-pyrazolyl)-pyridazine] |  | -35 | 200 |  |
| Cl.NNc1nncc2ccccc12 [Hydralazine, 1-hydrazinophthalazine hydrochloride, reference compound] | 90 | -40 | 200 |  |
